Row | SMILES | melting point
1 | CCCn1c(C)nnc1CO | 59 to 61 °C
2 | Cc1ccc2ncc(C=O)n2c1 | 105 to 107 °C
3 | CCN(CC)S(=O)(=O)c1ccc(C(=O)NCC(=O)O)cc1 | 143 to 145 °C
4 | CC(=O)c1ccc(C(F)(F)F)[nH]c1=O | 87 to 89 °C
5 | O=Cc1ccc(-c2cccc(F)c2)s1 | 101 to 103 °C
6 | Cc1ccc2oc(-c3nnc(S)n3N)cc2c1 | 228 to 230 °C
7 | O=C(O)C1(Cc2ccccc2)CC2CCC1C2 (stereo unspecified) | 89 to 91 °C
8 | O=C(NCCO)c1ccc(O)cc1O | 163 to 165 °C
9 | O=Cc1ccc(OCC(=O)Nc2ccc(Cl)cc2)cc1 | 139 to 141 °C
10 | Cc1ccn2c(N)c(-c3ccc(F)cc3)nc2c1 | 188 to 190 °C
11 | Cc1nc(NC(=O)CCl)sc1C | 144 to 146 °C
12 | NCc1ccccc1NS(=O)(=O)c1ccccc1 | 188 to 190 °C
13 | COc1ccc(C(=O)c2ccccc2Cl)c(OC)c1 | 61 to 63 °C
14 | CC(OCc1ccccc1)C(=O)O (stereo unspecified) | 51 to 53 °C
15 | CC(C)(C)c1ccc2c(c1)C(=O)C(=O)N2 | 145 to 147 °C
16 | CCNC(=O)COc1cccc(CN)c1 | 62 to 64 °C
17 | COc1ccc(NC(=O)c2ccc(CCl)cc2)cc1 | 189 to 191 °C
18 | O=C(O)Cc1ccc(S(=O)(=O)Cl)cc1 | 131 to 133 °C
19 | CN(C)c1cccc(N)n1 | 41 to 43 °C
20 | CNC(=O)NCC(=O)O | 138 to 140 °C
21 | Nc1cnn(-c2ccccn2)c1 | 79 to 81 °C
22 | CON=C(C(=O)N[C@@H]1C(=O)N2C(C(=O)O)=C(CSc3nnnn3C)CS[C@H]12)c1csc(N)n1 | 159 to 161 °C

Row | SMILES | melting point
23 | Cc1ccc(NS(C)(=O)=O)c(N)c1 | 116 to 118 °C
24 | C=CCN(c1ccc(OC)cc1)S(=O)(=O)c1ccc(Cl)c(C(=O)O)c1 | 109 to 111 °C
25 | Cc1ccc(Cn2nc(C)c(/C=C/C(=O)O)c2C)cc1 | 161 to 163 °C
26 | O=C(O)C1CCCN1C(=O)Nc1ccc(F)cc1 (stereo unspecified) | 163 to 165 °C
27 | O=C1C=CC(=O)N1c1cccc2cnccc12 | 134 to 136 °C
28 | CNC(=O)c1cccc(CCN)c1 | 110 to 112 °C
29 | Cc1n[nH]c(C(F)(F)Cl)c1C(=O)O | 260 to 262 °C
30 | O=Cc1nccc2ccccc12 | 51 to 53 °C
31 | CC(C)c1cc(C(=O)O)nn1-c1ccncc1 | 225 to 227 °C
32 | O=C(c1cc(Cl)c[nH]1)C(Cl)(Cl)Cl | 128 to 130 °C
33 | NC(=O)c1sccc1-c1ccccc1 | 114 to 116 °C
34 | Cc1cnc2c(C)cnn2c1N | 239 to 241 °C
35 | Cc1[nH]c2ccccc2c1C(=O)CCl | 227 to 229 °C
36 | Cn1c(S)nc2sc3c(c2c1=O)CCCC3 | 304 to 306 °C
37 | C#Cc1cccc(OC)n1 | 47 to 49 °C
38 | O=C(O)c1cn(-c2ccccc2)nc1-c1ccc(Cl)s1 | 209 to 211 °C
39 | O=C(O)c1cc(F)cc(S(=O)(=O)Cl)c1Br | 186 to 188 °C
40 | O=C(O)c1cnn(-c2ccc(Cl)cc2)c1 | 237 to 239 °C
41 | CC(C)c1cccc(C(=O)O)n1 | 63 to 65 °C
42 | CCOc1ccc(-n2ncc(C(=O)O)c2C)nn1 | 227 to 229 °C
43 | O=C(CCl)c1ccc(F)c(F)c1 | 37 to 39 °C

Results, then the molecule that gave them:

Row | melting point | SMILES
44 | 157 to 159 °C | Cc1nc(C#N)c(NN)o1
45 | 153 to 155 °C | NC(=NO)c1cccc(CN2CCCCC2)c1
46 | 214 to 216 °C | c1ccc(-c2nnn[nH]2)nc1
47 | 236 to 238 °C | CCS(=O)(=O)Nc1ccc(C(=O)O)cn1
48 | 299 to 301 °C | O=C(O)c1c2c(nc3ccccc13)C(=Cc1cccc([N+](=O)[O-])c1)CCC2
49 | 158 to 160 °C | N#Cc1cccc(CS(=O)(=O)NCC(=O)O)c1
50 | 168 to 170 °C | O=C(CCl)N1CCN(C(=O)Nc2ccccc2)CC1
51 | 87 to 89 °C | N#Cc1ccc2ocnc2c1
52 | 245 to 247 °C | O=c1c2cc(Cl)cc(Cl)c2nc2n1CCC2
53 | 114 to 116 °C | CC(=O)N(C)c1cccc(N)c1
54 | 150 to 155 °C | CC(C)CN(C(=O)CCl)C1CCS(=O)(=O)C1 (stereo unspecified)
55 | 124 to 126 °C | CCc1ccc(C(=O)c2ccc(N)cc2)o1
56 | 97 to 99 °C | CCOc1ccc(C#N)cn1
57 | 202 to 204 °C | O=C(O)CCc1nncn1-c1ccccc1
58 | 141 to 145 °C | CCN(CC)S(=O)(=O)c1ccc(Br)c(C(=O)O)c1
59 | 177 to 179 °C | ON=Cc1cccc(OCc2ccncc2)c1
60 | 66 to 68 °C | CC(CC(=O)O)c1ccc(F)cc1F (stereo unspecified)
61 | 145 to 154 °C | COc1ccc(NS(=O)(=O)c2cc(N)ccc2N2CCCCC2)cc1
62 | 179 to 181 °C | COc1ccc2c(c1)-c1sc(N)nc1CC2
63 | 137 to 139 °C | COc1ccc(CNS(=O)(=O)c2c[nH]nc2N)cc1
64 | 29 to 31 °C | CNCc1cc(Br)ccc1[N+](=O)[O-]
65 | 229 to 231 °C | O=c1[nH]c2cc([N+](=O)[O-])ccc2o1
66 | 224 to 226 °C | Cc1cc(C(=O)O)c2c(CC(C)(C)C)noc2n1
67 | 67 to 69 °C | COCCOc1ccc(C=O)cc1OC
68 | 105 to 107 °C | NNS(=O)(=O)c1ccc(OC(F)(F)F)cc1
69 | 71 to 73 °C | Cc1ccc(Oc2ccc(O)cc2)cc1
70 | 189 to 191 °C | NC(=S)c1ccc(N)cc1
71 | 143 to 145 °C | CCc1c(C(=O)CCl)[nH]c(C)c1C(C)=O

Source: a melting point compilation (Tetko et al.)
